Calls of active or inactive are those of the source. Cut-off read from the data, not from the text of the source: actives have a measured IC50 and inactives only a lower limit.
Each molecule was assayed against Envelope glycoprotein gp160 (Human immunodeficiency virus 1, UniProt Q6QLK5) (assay: inhibitors of HIV fusion peptide binding, primary screen, biochemical, uHTS, fluorescence dequenching (AID 1986)).
Chain of Envelope glycoprotein gp160 (Q6QLK5 whole entry, the tested form may be a part): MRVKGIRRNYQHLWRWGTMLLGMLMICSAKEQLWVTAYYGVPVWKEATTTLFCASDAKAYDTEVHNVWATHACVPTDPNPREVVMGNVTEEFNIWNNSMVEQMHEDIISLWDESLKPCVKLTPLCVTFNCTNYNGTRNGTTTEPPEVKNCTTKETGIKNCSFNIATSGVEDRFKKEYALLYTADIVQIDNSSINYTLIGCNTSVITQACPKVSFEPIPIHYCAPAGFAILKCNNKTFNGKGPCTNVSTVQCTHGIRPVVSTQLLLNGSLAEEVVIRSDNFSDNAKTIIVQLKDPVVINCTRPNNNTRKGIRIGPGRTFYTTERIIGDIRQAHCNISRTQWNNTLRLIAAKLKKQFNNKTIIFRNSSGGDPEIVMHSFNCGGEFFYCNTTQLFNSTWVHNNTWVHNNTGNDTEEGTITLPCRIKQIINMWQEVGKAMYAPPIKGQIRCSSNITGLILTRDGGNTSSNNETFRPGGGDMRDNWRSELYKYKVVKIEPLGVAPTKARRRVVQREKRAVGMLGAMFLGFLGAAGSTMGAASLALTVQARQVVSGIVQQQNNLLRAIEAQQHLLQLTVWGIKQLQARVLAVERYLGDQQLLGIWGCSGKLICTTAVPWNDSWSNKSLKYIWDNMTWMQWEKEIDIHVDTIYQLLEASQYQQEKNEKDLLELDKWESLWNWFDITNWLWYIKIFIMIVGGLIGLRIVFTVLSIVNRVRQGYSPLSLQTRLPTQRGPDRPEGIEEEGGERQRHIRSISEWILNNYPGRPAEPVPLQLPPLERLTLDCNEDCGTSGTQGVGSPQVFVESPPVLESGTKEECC
For `O=C(CCN1C(=O)/C(=C/c2cccs2)SC1=S)Nc1ccc(C(=O)O)c(O)c1`, the IC50 was 11.6 µM (active).
With `Cc1oc2c(cc(NS(=O)(=O)c3ccc(C(C)C)cc3)c3ccccc32)c1C(=O)O` the IC50 was 14.8 µM (active).
For `N#Cc1c(SCC(=O)Nc2nc3ccc(Br)cc3s2)sc2c(O)cc(=O)[nH]c12`, the IC50 was 11 µM (active).
For `COc1cccc(OCCOc2ccc(/C=C3\C(=N)N4N=C(S(C)(=O)=O)SC4=NC3=O)cc2OC)c1`, the IC50 was 43.8 µM (active).
For `O=C(O)c1cc(-c2ccc(/C=N/Nc3ccc(Cl)cc3)o2)ccc1Cl`, the IC50 was 24.1 µM (active).

Reference: ChEMBL document CHEMBL1201862, “PubChem BioAssay data set” (2004)
